Assay results published in US20150152469A1, “FLUORESCENT PROBE FOR HIGH-SENSITIVITY PANCREATIC FLUID DETECTION, AND METHOD FOR DETECTING PANCREATIC FLUID” (THE UNIVERSITY OF TOKYO, priority 2012, published 2015).

Experiments:
chymotrypsin = test: Fluorescence response to drain samples of pancreatic fluid, ascitic fluids and intestinal fluids (gPhe-HMRG, gPhe-HMRG-Try); format: biochemical, human
Experimental: (§1) Furthermore, response behaviors of the fluorescent probes against body fluids other than pancreatic fluid were compared by using drain samples which were collected from patients who received resectional surgeries of the pancreas. With respect to a total of 76 samples of pancreatic fluid, ascitic fluids and intestinal fluids which were collected from 18 patients, changes in fluorescent intensities were measured for gGlu-HMRG, gPhe-HMRG, and trypsin-added gPhe-HMRG (gPhe-HMRG-Try).
(§2) 180 μL of a probe solution (1.1 μM) was poured into each well of a 96-well microplate reader (SH-8000, Hitachi), and then, 20 μL of a collected sample was added thereto, followed by mixing them. The sample was incubated at 37° C., and fluorescence responses were measured after 5 minutes, 15 minutes and 30 minutes. Trypsin was added to gPhe-HMRG-Try at a final concentration of 0.525 μBTEE/μL. For an excitation wavelength and a fluorescence wavelength for the fluorescence measurement device, 490 nm and 520 nm, respectively, were used. The obtained results of fluorescence responses are shown as average values of respective samples in FIG. 5.

[1] = system: chymotrypsin activities in pancreatic fluid; test: In vitro fluorescence assay using human pancreatic fluid (gPhe-HMRG); format: biochemical
Experimental: (§3) gPhe-HMRG synthesized in Example 1 and gGlu-HMRG, which has a glutamic acid residue, synthesized in Example 2 were used as fluorescent probes to evaluate enzymatic activities of pancreatic fluid obtained from patients of pancreatic cancer or bile duct cancer. 1 μL of a fluorescent probe DMSO solution (1 mM) was dissolved in 180 μL of a 0.1 M sodium phosphate buffer (pH 7.4) at a final concentration of […], 20 μL of a pancreatic fluid was added thereto, and an enzymatic reaction was carried out at 37° C. for 30 minutes. In the case of gPhe-HMRG, a probe solution to which 57 BAEE units of trypsin (bovine pancreas-derived trypsin: SIGMA T1426-100MG) had been added was used to carry out the same enzymatic reaction. In addition, as to inhibitor treatments for comparisons, 1 μL of an aqueous solution (10 mM) of a γ-glutamyltransferase inhibitor (GGs-Top: Wako Pure Chemical 075-05471) in the case of gGlu-HMRG, and 1 μL of a DMSO solution (10 mM) of a chymotrypsin inhibitor (chymostatin: SIGMA C7268) in the case of gPhe-HMRG were each added to probe solutions. For excitation wavelengths and fluorescence wavelengths of a fluorescence measurement device, 478-492 nm and 523-548 nm, respectively, were used.

[2] = molecular target: T1, chymotrypsin (a-chymotrypsin derived from bovine pancreas) (Bos taurus, UniProt P00766); test: Fluorescence assay using chymotrypsin; format: biochemical; settings: 2.4 μM probe, 4.6 U chymotrypsin
T1 construct: a-chymotrypsin derived from bovine pancreas; purchased SIGMA C4129-250MG; host or cells: bovine pancreas
Experimental: 3 μL of a 2.4 mM gPhe-HMRC dimethylsulfoxide (DMSO) solution was dissolved in 3 mL of 0.1 M sodium phosphate buffer (pH 7.4) at a final concentration of 2.4 μM, 4.6 U of chymotrypsin (a-chymotrypsin derived from bovine pancreas: SIGMA C4129-250MG) was added thereto to conduct an enzymatic reaction at 37° C. The excitation wavelength was set to 501 nm.

[3] = Fluorescent imaging of human pancreatic fluid; settings: for visualization of adhesion points of the pancreatic fluids: 50 μM probe solution sprayed on paper (gPhe-HMRG with trypsin), after several minutes from spraying
Experimental: Fluorescent imaging of pancreatic fluids on an excised surface of the pancreas was carried out by using gPhe-HMRG and gGlu-HMRG as fluorescent probes. In consideration of, for example, cases where materials retaining pancreatic fluids, which are measurement subjects, are used during surgeries, wiping towels and filter paper for experiments (those having low background fluorescence from paper itself), which had been used in clinical practice, were used as the materials. For specific procedures, apiece of the pancreas immediately after being excised by surgical operations was collected, the wiping towel and filter paper was adhered to its excised surface, thereby adhering the pancreatic fluid thereto. Then, probe solutions of gPhe-HMRG (including trypsin) and gGlu-HMRG were sprayed to the adhered paper to start imaging. For the probe solutions, 10 μL of a DMSO solution (10 mM) of each probe was dissolved in 2 mL of RPMI 1640 medium (GINBO 11835) at a final concentration of 50 μM, and, for gPhe-HMRG, a solution obtained by adding trypsin (52.6 BTEE units) thereto was used. For an excitation filter and a fluorescence filter, long path filters of 435-480 nm and 490 nm, respectively, were used.

γ-glutamyltransferase = test: Fluorescence response to drain samples of pancreatic fluid, ascitic fluids and intestinal fluids (gGlu-HMRG); format: biochemical, human; settings: drain samples from patients, 37° C., 5, 15, 30 minutes
Experimental: as §1, §2

[4] = molecular target: T2, γ-glutamyltransferase activity in a pancreatic fluid (Homo sapiens, UniProt P19440); test: In vitro fluorescence assay using human pancreatic fluid (gGlu-HMRG); format: biochemical; settings: 0.9 μM probe, 37° C., 30 minutes
T2 construct: pancreatic fluid obtained from patients of pancreatic cancer or bile duct cancer; from tissue; host or cells: pancreatic fluid from patients with pancreatic cancer or bile duct cancer
Experimental: as §3

T2 sequence (P19440 1-380 limits assumed): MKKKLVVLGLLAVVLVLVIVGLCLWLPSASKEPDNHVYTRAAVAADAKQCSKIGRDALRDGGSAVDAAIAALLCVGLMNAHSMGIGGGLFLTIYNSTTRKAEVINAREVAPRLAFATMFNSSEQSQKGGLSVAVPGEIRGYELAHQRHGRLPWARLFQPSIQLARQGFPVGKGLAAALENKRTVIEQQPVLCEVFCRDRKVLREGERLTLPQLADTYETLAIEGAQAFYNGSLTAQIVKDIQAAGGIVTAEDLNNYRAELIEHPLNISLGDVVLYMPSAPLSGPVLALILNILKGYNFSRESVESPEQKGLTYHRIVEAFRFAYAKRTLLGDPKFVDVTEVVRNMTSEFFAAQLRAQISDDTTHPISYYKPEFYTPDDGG
T2 sequence (P19440 381-569 limits assumed): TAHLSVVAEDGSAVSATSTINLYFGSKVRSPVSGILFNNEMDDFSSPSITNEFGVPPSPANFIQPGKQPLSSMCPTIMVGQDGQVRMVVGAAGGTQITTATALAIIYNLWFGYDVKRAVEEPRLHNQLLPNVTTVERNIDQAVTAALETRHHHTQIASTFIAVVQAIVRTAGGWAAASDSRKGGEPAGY

Substance | fluorescent response to body fluids, trypsin not added (chymotrypsin; pancreatic fluid, ascitic fluids, intestinal fluids from patients, 37° C., 5, 15, 30 minutes) | fluorescence response compared with gGlu-HMRG (chymotrypsin; trypsin added) | change in fluorescent intensity by addition of pancreatic fluid sample, trypsin included ([1]; 0.9 μM probe, 57 BAEE units trypsin, pancreatic fluid samples No. 1 to No. 5, 37° C., 30 minutes) | fluorescence response against chymotrypsinogen (precursor) ([1]; pancreatic fluid without trypsin addition) | fluorescent intensity when chymostatin (chymotrypsin inhibitor) was added ([1]; pancreatic fluid, trypsin, chymostatin added, 37° C., 30 minutes) | change in absorption by chymotrypsin addition ([2]; 0.1 M sodium phosphate buffer pH 7.4, 37° C.) | change in fluorescent intensity by chymotrypsin addition ([2]; pH 7.4, 37° C., excitation 501 nm) | time until fluorescent intensity reached saturation after chymotrypsin addition ([2]; fluorescence at 524 nm, 37° C.) | visualization of adhesion points of the pancreatic fluids [3] | fluorescence response at adhesion points of body fluids other than the pancreatic fluid ([3]; 50 μM probe with trypsin sprayed on paper) | fluorescent response to ascitic fluids (γ-glutamyltransferase) | fluorescent response to pancreatic fluids (γ-glutamyltransferase) | fluorescent response to intestinal fluids (γ-glutamyltransferase; compared with pancreatic fluids) | change in fluorescent intensity by addition of pancreatic fluid sample ([4]; 20 μL pancreatic fluid (samples No. 1 to No. 5), no inhibitor) | fluorescent intensity when γ-glutamyltransferase-specific inhibitor (GGs-Top) was added ([4]; pancreatic fluid, inhibitor added)
glutamyl-phenylalanine hydroxymethyl rhodamine green [gPhe-HMRG] | significant fluorescent responses were not observed for all the body fluids | superior | remarkable increases in fluorescent intensities were observed in all the pancreatic fluid samples | hardly showed a fluorescence response | significantly decreased | significant increases | significant increases | about 600 seconds | successfully accomplished | any fluorescence response was not observed | – | – | – | – | –
γ-glutamyl hydroxymethyl rhodamine green [gGlu-HMRG] | – | – | – | – | – | – | – | – | successfully accomplished | – | increases in fluorescent intensities were observed | an increase in fluorescent intensities was observed | a larger increase in fluorescent intensities was observed for intestinal fluids, than for the case of pancreatic fluids | increases in fluorescent intensities were observed in all pancreatic fluid samples | significantly decreased
